# Measured values from patent US20230241233A1, “ORAL PHARMACEUTICAL COMPOSITIONS COMPRISING LIPID CONJUGATES” (UNIVERSITAT HEIDELBERG, priority 2020, published 2023).
# What was measured:
# [1] = Pharmacokinetic evaluation of octreotide lipid conjugate in beagle dogs (Charles River Study No 47656 PAC); type: in vivo; conditions: dog, plasma, conjugate dose 0 mg, oral gavage octreotide 0.12 mg/kg, vs iv bolus 0.01 mg/kg, read-out: abs. bioavailability
# Description: Between the cycles, a washout phase of one week was performed.
# First, animals received an intravenous bolus injection of 0.01 mg/kg octreotide. The consecutive administrations were given orally by gavage. After a wash-out of one week animals #1 and #2 received 0.12 mg/kg free octreotide and animals #3 and #4 received 0.12 mg/kg octreotide with 0.3 mg/kg lipid-conjugate. After a wash-out of one week animals #1 and #2 received 0.12 mg/kg free octreotide with 1 mg/kg lipid-conjugate and animals #3 and #4 received 0.12 mg/kg octreotide with 3 mg/kg lipid-conjugate. After a wash-out of one week animals #1 and #2 received 0.12 mg/kg free octreotide with 10 mg/kg lipid-conjugate and animals #3 and #4 received 0.12 mg/kg octreotide with 30 mg/kg lipid-conjugate. After a wash-out of one week animals #1 and #2 received 0.012 mg/kg free octreotide with 1 mg/kg lipid-conjugate and animals #3 and #4 received 1.2 mg/kg octreotide with 1 mg/kg lipid-conjugate.
# [2] = Bioavailability of octreotide SEDDS formulation in beagle dogs; conditions: dog, plasma, oral, 1.5 mg/animal
# Description: The administration of octreotide in SEDDS formulation was investigated in a study in beagle dogs at Charles River, Evreux, France (Study No 47656 PAC and 48482 PAC). […] Animals were treated with octreotide in SEDDs formulation, or octreotide alone, prepared in citrate buffer (100 mM, pH 5.5), by single oral administration via gavage. For determination of the absolute bioavailability plasma concentrations after intravenous bolus injection (in PBS) were determined. Between the cycles, a wash-out phase of one week was performed.
# Plasma concentrations of all investigated peptide therapeutics were determined by quantification using a validated UPLC-MS/MS assay (according to the pertinent recommendations for bioanalytical method development of the US FDA and EMA). All assays were performed on a Waters Xevo TQ-XS triple quadrupole tandem mass spectrometer coupled to a Waters Acquity classic UPLC using C18 columns, heated electrospray ionization (ESI), and selected ion monitoring in the positive ion mode.
structure (smiles),measurement,setting,value
C[C@@H](O)[C@@H]1NC(=O)[C@H](CCCCN)NC(=O)[C@@H](Cc2c[nH]c3ccccc23)NC(=O)[C@H](Cc2ccccc2)NC(=O)[C@@H](NC(=O)[C@H](N)Cc2ccccc2)CSSC[C@@H](C(=O)N[C@H](CO)[C@@H](C)O)NC1=O [octreotide],bioavailability,[1],2.1%
same,bioavailability,[2],2.1%
